What was measured:
[1] = target: T1, 4-galactosyl-N-acetylglucosaminide 3-alpha-L-fucosyltransferase FUT6 (Homo sapiens) (UniProt P51993); assay: In vitro inhibition of Fucosyltransferase 6; set-up: concentration or dose not given beside the values; settings: concentration not given here
T1 sequence (whole entry): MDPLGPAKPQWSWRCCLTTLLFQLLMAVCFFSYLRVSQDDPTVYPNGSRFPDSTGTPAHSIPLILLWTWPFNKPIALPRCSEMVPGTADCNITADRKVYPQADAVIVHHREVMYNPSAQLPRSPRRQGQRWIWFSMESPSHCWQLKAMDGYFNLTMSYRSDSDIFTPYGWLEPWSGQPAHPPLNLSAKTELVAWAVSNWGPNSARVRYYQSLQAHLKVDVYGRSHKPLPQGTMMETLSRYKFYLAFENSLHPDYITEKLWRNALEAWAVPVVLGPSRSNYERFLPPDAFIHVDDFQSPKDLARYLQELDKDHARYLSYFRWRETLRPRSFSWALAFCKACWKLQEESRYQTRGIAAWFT

[2] = target: T2, 3-galactosyl-N-acetylglucosaminide 4-alpha-L-fucosyltransferase FUT3 (Homo sapiens) (UniProt P21217); assay: In vitro inhibition of Fucosyltransferase 3; set-up: concentration or dose not given beside the values; settings: concentration not given here
T2 sequence (whole entry): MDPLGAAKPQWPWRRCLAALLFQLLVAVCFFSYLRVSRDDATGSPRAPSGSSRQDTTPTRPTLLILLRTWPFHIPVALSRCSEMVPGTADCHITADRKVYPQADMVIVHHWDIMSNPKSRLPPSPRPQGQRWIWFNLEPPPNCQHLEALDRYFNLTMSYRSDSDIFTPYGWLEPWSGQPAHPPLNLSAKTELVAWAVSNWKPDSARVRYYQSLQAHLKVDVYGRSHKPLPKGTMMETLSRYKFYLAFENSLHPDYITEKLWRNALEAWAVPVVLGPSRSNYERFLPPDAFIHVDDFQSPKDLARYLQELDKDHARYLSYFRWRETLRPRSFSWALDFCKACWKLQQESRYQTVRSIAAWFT

inhibition [1] [%]	inhibition [2] [%]	SMILES
72	68	C[C@@H]1O[C@H](OP(=O)(O)OP(=O)(O)OC[C@H]2O[C@@H](n3cnc4c(O)ncnc43)[C@H](O)[C@@H]2O)[C@@H](O)[C@@H](O)[C@H]1O
83	96	C[C@@H]1O[C@H](OP(=O)(O)OP(=O)(O)OC[C@H]2O[C@@H](n3cnc4c(O)nc(N)nc43)[C@H](O)[C@@H]2O)[C@H](O)[C@@H](O)[C@@H]1O
0	0	C[C@@H]1O[C@H](OP(=O)(O)OP(=O)(O)OP(=O)(O)OC[C@H]2O[C@@H](n3cnc4c(O)nc(N)nc43)[C@H](O)[C@@H]2O)[C@H](O)[C@@H](O)[C@@H]1O
62	73	C[C@@H]1O[C@H](OP(=O)(O)OP(=O)(O)OC[C@H]2O[C@@H](n3cnc4c(=O)[nH]c(=O)[nH]c43)[C@H](O)[C@@H]2O)[C@@H](O)[C@@H](O)[C@H]1O
60	76	C[C@@H]1O[C@H](OP(=O)(O)OP(=O)(O)OC[C@H]2O[C@@H](n3cnc4c(N)ncnc43)[C@H](O)[C@@H]2O)[C@@H](O)[C@@H](O)[C@H]1O

Reference: ChEMBL document CHEMBL1159135, “Enzymatic fucosylations with purine-diphosphate-fucoses (PDP-Fucoses)” (Bioorg Med Chem Lett, 1996)
